Source: PubChem BioAssay AID330 (DTP/NCI, 2004)
“And” between values parts separate entries of the source, which are not always exact repeats. Identical values can stand only once. Toxic doses and inconclusive results are not listed. The calls were made as follows: active = survival T/C of 150% or more; inactive = T/C below 125% in these data.

Test system: P388 leukemia ip, CD2F1 mice, survival T/C
Experiment: NCI In Vivo Anticancer Drug Screen. Data for tumor model P388 Leukemia (intraperitoneal) in CD2F1 (CDF1) mice
Details: endpoint: median survival time, higher = longer survival
Method in brief: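 Mice carrying the transplanted tumor received test compound or vehicle. Survival was recorded in each group, and the value is the treated-group measurement divided by that of the vehicle-treated control group.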

[1] = dose: 60.0 mg/kg/injection, schedule: Q01DX005 (ip), vehicle: saline with Tween-80
[2] = dose: 120.0 mg/kg/injection, schedule: Q01DX005 (ip), vehicle: saline with Tween-80
[3] = dose: 240.0 mg/kg/injection, schedule: Q01DX005 (ip), vehicle: saline with Tween-80
[4] = dose: 25.0 mg/kg/injection, schedule: Q01DX009 (ip), vehicle: saline with Tween-80
[5] = dose: 50.0 mg/kg/injection, schedule: Q01DX009 (ip), vehicle: saline with Tween-80
[6] = dose: 100.0 mg/kg/injection, schedule: Q01DX009 (ip), vehicle: saline with Tween-80
[7] = dose: 50.0 mg/kg/injection, schedule: Q01DX005 (ip), vehicle: saline with Tween-80
[8] = dose: 100.0 mg/kg/injection, schedule: Q01DX005 (ip), vehicle: saline with Tween-80
[9] = dose: 200.0 mg/kg/injection, schedule: Q01DX005 (ip), vehicle: saline with Tween-80
[10] = dose: 60.0 mg/kg/injection, schedule: Q01DX005 (ip), vehicle: Klucel (hydroxypropylcellulose) (HPC)
[11] = dose: 120.0 mg/kg/injection, schedule: Q01DX005 (ip), vehicle: Klucel (hydroxypropylcellulose) (HPC)
[12] = dose: 240.0 mg/kg/injection, schedule: Q01DX005 (ip), vehicle: Klucel (hydroxypropylcellulose) (HPC)
[13] = dose: 50.0 mg/kg/injection, schedule: Q01DX009 (ip), vehicle: Klucel (hydroxypropylcellulose) (HPC)

Measured: T/C

NC(=S)N=Nc1c(O)n(C2OC(CO)C(O)C(O)C2O)c2ccccc12 (configuration not stated)
inactive: dose: 32.0 mg/kg/injection, schedule: Q01DX002 (ip), vehicle: saline with Tween-80 109 % of control and 112 % of control | dose: 64.0 mg/kg/injection, schedule: Q01DX002 (ip), vehicle: saline with Tween-80 114 % of control and 116 % of control | dose: 128.0 mg/kg/injection, schedule: Q01DX002 (ip), vehicle: saline with Tween-80 98 % of control and 90 % of control

c1ccc2c(-c3cc(-c4cc(-c5cccc6ccccc56)on4)no3)cccc2c1
inactive: [1] 106 % of control | [2] 97 % of control | [3] 100 % of control

Nc1ccc2c(c1)C(O)c1cccc(C(=O)O)c1-2 (configuration not stated)
inactive: [1] 96 % of control | [2] 101 % of control | [3] 94 % of control

O=C1CN(CCCN2CCOCC2)CC(=O)N2CCCCN12
inactive: dose: 50.0 mg/kg/injection, schedule: Q01DX005 (ip), vehicle: saline 100 % of control | dose: 100.0 mg/kg/injection, schedule: Q01DX005 (ip), vehicle: saline 105 % of control | dose: 200.0 mg/kg/injection, schedule: Q01DX005 (ip), vehicle: saline 102 % of control

COC(=O)/C(=C/Cl)NC(C)=O
inactive: dose: 12.5 mg/kg/injection, schedule: Q01DX001 (ip), vehicle: suspension in saline 91 % of control | dose: 25.0 mg/kg/injection, schedule: Q01DX001 (ip), vehicle: suspension in saline 99 % of control | dose: 50.0 mg/kg/injection, schedule: Q01DX001 (ip), vehicle: suspension in saline 92 % of control | dose: 200.0 mg/kg/injection, schedule: Q01DX001 (ip), vehicle: suspension in saline 98 % of control

CC(C)n1cnc2c(Cl)ncnc21
inactive: [4] 100 % of control | [5] 104 % of control | [6] 95 % of control

[CH2+][B-]1(C)n2ccc[n+]2[B-](C)(C)[n+]2cccn21
inactive: [1] 90 % of control | [2] 98 % of control | [3] 93 % of control

CCOC(=O)Cc1nnc(N)s1
inactive: dose: 50.0 mg/kg/injection, schedule: Q04DX003 (ip), vehicle: saline 94 % of control | dose: 100.0 mg/kg/injection, schedule: Q04DX003 (ip), vehicle: saline 95 % of control | dose: 200.0 mg/kg/injection, schedule: Q04DX003 (ip), vehicle: saline 110 % of control | dose: 400.0 mg/kg/injection, schedule: Q04DX003 (ip), vehicle: saline 104 % of control

N#CC1Sc2ccccc2N1C(=O)c1ccccc1 (configuration not stated)
inactive: [7] 103 % of control | [8] 100 % of control | [9] 98 % of control

Oc1cccc(N2CCN(c3cccc(O)c3)CC2)c1
inactive: [10] 91 % of control | [11] 89 % of control

CN1C(=O)CN2CCc3ccccc3C2c2cc(Cl)ccc21 (configuration not stated)
inactive: [7] 92 % of control | [8] 98 % of control | [9] 98 % of control

CCCCCC(O)C1C(=O)OC(C)C(O)/C=C/C=C/C=C/C=C\C=C(\C)C(O)CC(O)CC(O)CC(O)CC(O)CC(O)CC1O (configuration not stated)
inactive: dose: 10.0 mg/kg/injection, schedule: Q04DX003 (ip), vehicle: other 104 % of control | dose: 20.0 mg/kg/injection, schedule: Q04DX003 (ip), vehicle: other 95 % of control | [7] 108 % of control | [8] 107 % of control | [9] 103 % of control

Cn1c(N)nc(N)c(NC=O)c1=O
inactive: dose: 50.0 mg/kg/injection, schedule: Q01DX005 (ip), vehicle: Klucel (hydroxypropylcellulose) (HPC) 101 % of control | dose: 100.0 mg/kg/injection, schedule: Q01DX005 (ip), vehicle: Klucel (hydroxypropylcellulose) (HPC) 103 % of control | dose: 200.0 mg/kg/injection, schedule: Q01DX005 (ip), vehicle: Klucel (hydroxypropylcellulose) (HPC) 101 % of control

Cc1nnc2c3nccn3ccn12
inactive: dose: 12.5 mg/kg/injection, schedule: Q01DX001 (ip), vehicle: saline with Tween-80 106 % of control | dose: 25.0 mg/kg/injection, schedule: Q01DX001 (ip), vehicle: saline with Tween-80 101 % of control | dose: 50.0 mg/kg/injection, schedule: Q01DX001 (ip), vehicle: saline with Tween-80 106 % of control

[Cl][Pt+2][Cl].[NH-]c1ccc(S(=O)(=O)O)cc1[NH-]
inactive: dose: 6.25 mg/kg/injection, schedule: Q04DX002 (ip), vehicle: saline with Tween-80 102 % of control | dose: 12.5 mg/kg/injection, schedule: Q04DX002 (ip), vehicle: saline with Tween-80 111 % of control | dose: 25.0 mg/kg/injection, schedule: Q04DX002 (ip), vehicle: saline with Tween-80 119 % of control | dose: 50.0 mg/kg/injection, schedule: Q04DX002 (ip), vehicle: saline with Tween-80 124 % of control

Cc1nc(N)[nH]c(=O)c1CCCC#N
inactive: [10] 105 % of control | [11] 108 % of control

CCC[CH2][Sn]([CH2]CCC)([CH2]CCC)[C]1(CCCC2CO2)SCCCS1 (configuration not stated)
inactive: dose: 12.5 mg/kg/injection, schedule: Q01DX009 (ip), vehicle: saline with Tween-80 86 % of control | [4] 94 % of control | [5] 108 % of control

O=C(CCc1cc2[nH]c1c(-c1ccccc1)c1nc(c(-c3ccccc3)c3ccc([nH]3)c(-c3ccccc3)c3nc(c2-c2ccccc2)C=C3)C=C1)OCCCc1cccnc1
inactive: dose: 50.0 mg/kg/injection, schedule: Q01DX001 (ip), vehicle: Klucel (hydroxypropylcellulose) (HPC) 100 % of control | dose: 100.0 mg/kg/injection, schedule: Q01DX001 (ip), vehicle: Klucel (hydroxypropylcellulose) (HPC) 105 % of control | dose: 200.0 mg/kg/injection, schedule: Q01DX001 (ip), vehicle: Klucel (hydroxypropylcellulose) (HPC) 100 % of control | dose: 400.0 mg/kg/injection, schedule: Q01DX001 (ip), vehicle: Klucel (hydroxypropylcellulose) (HPC) 91 % of control

COCN1C(=O)N2C(c3ccccc3)(c3ccccc3)C(C(=O)OC)=C(C(=O)OC)P12(c1ccccc1)c1ccccc1
inactive: dose: 15.0 mg/kg/injection, schedule: Q01DX005 (ip), vehicle: Klucel (hydroxypropylcellulose) (HPC) 107 % of control | dose: 30.0 mg/kg/injection, schedule: Q01DX005 (ip), vehicle: Klucel (hydroxypropylcellulose) (HPC) 99 % of control | [10] 91 % of control and 97 % of control | [12] 87 % of control

CC1(C)C(=NOCc2ccccc2)C(C)(C)C1=NOCc1ccccc1
inactive: [7] 91 % of control | [8] 87 % of control | [9] 86 % of control

OP12(OC(C(F)(F)F)(C(F)(F)F)c3ccccc31)OC(C(F)(F)F)(C(F)(F)F)c1ccccc12
inactive: dose: 100.0 mg/kg/injection, schedule: Q04DX002 (ip), vehicle: Klucel (hydroxypropylcellulose) (HPC) 97 % of control | dose: 200.0 mg/kg/injection, schedule: Q04DX002 (ip), vehicle: Klucel (hydroxypropylcellulose) (HPC) 98 % of control

COc1cc(/C=N/NC(=O)C(=O)N/N=C/c2cc(OC)c(OC)c(OC)c2)cc(OC)c1OC
inactive: [13] 89 % of control | dose: 100.0 mg/kg/injection, schedule: Q01DX009 (ip), vehicle: Klucel (hydroxypropylcellulose) (HPC) 95 % of control | dose: 200.0 mg/kg/injection, schedule: Q01DX009 (ip), vehicle: Klucel (hydroxypropylcellulose) (HPC) 93 % of control

CCCCCCC(Cn1ccnc1)c1ccc(Br)cc1 (configuration not stated)
inactive: dose: 100.0 mg/kg/injection, schedule: Q04DX003 (ip), vehicle: saline with Tween-80 100 % of control | dose: 200.0 mg/kg/injection, schedule: Q04DX003 (ip), vehicle: saline with Tween-80 91 % of control

CSc1cccc(NC(=O)Nc2onc(C)c2C)c1
inactive: [13] 91 % of control

O=c1c(Cc2ccccc2)c([O-])[n+](Cc2ccccc2)c(-c2ccccc2)n1-c1ccccc1
inactive: [10] 98 % of control | [11] 91 % of control | [12] 90 % of control

CC/C(=C(/CC)c1ccc(O)c(N(CCCl)CCCl)c1)c1ccc(O)c(N(CCCl)CCCl)c1
inactive: dose: 7.5 mg/kg/injection, schedule: Q01DX009 (ip), vehicle: saline 106 % of control | dose: 15.0 mg/kg/injection, schedule: Q01DX009 (ip), vehicle: saline 89 % of control | dose: 30.0 mg/kg/injection, schedule: Q01DX009 (ip), vehicle: saline 105 % of control

Cc1ccc(S(=O)(=O)N=S(C)C)cc1
inactive: dose: 6.25 mg/kg/injection, schedule: Q01DX009 (ip), vehicle: other 117 % of control | dose: 12.5 mg/kg/injection, schedule: Q01DX009 (ip), vehicle: other 107 % of control | dose: 25.0 mg/kg/injection, schedule: Q01DX009 (ip), vehicle: other 113 % of control | dose: 50.0 mg/kg/injection, schedule: Q01DX009 (ip), vehicle: other 118 % of control | [5] 100 % of control | [6] 106 % of control | dose: 200.0 mg/kg/injection, schedule: Q01DX009 (ip), vehicle: saline with Tween-80 111 % of control | dose: 400.0 mg/kg/injection, schedule: Q01DX009 (ip), vehicle: saline with Tween-80 116 % of control
